Consider twelve compounds from patent US12528812B2 (Genentech, Inc., priority 2020, dated 2026).

Read-outs that look alike come from different tables or passages of the source.

Assay [1] deals with T1, recombinant human JAK1 kinase domain protein (Residues 854-1154) (Homo sapiens, UniProt P23458).
T1 construct: human JAK1 kinase domain protein (Residues 854-1154); purchased Proteros Biostructures GmbH (Martinsried, Germany); host or cells: insect cells
The assay is described as follows: JAK1 biochemical assay (LabChip mobility shift, Ki). Particulars: read-out: Biochem JAK1 Ki.

Assay [2] has as its system IL-13-stimulated STAT6 phosphorylation in human lung bronchial epithelial BEAS-2B cell line. The assay is described as follows: P-STAT6 BEAS-2B + IL-13 cell assay. Particulars: BEAS2B cells, IL13 stimulation, read-out: Cellular JAK1 PSTAT6 BEAS2B + IL13. In kind it is cell-based. In a few lines: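 Phospho-STAT6 (Tyr641) was quantified in lysates by MSD electrochemiluminescence after human IL-13 challenge (250 ng/mL stock, 15 min, 37 °C). Before that, BEAS-2B cells cultured 48 h had 1 h compound exposure over 10 concentrations. Percent of control was fitted to a four-parameter logistic model to give IC50.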

Assay [3] concerns EPO-stimulated P-STAT5 in TF-1 human erythroleukemia cells. The assay is described as follows: P-STAT5 TF-1 + EPO assay (JAK2 pathway). Type of assay: cell-based. Particulars: EPO stimulation, read-out: Cellular JAK2 PSTAT5 TF-1 + EPO. How it is done:
(§1) TF-1 human erythroleukemia cells (ATCC′; Manassas, VA; Catalog No. CRL-2003™) were grown in Roswell Park Memorial Institute (RPMI) medium supplemented with 10% heat-inactivated fetal bovine serum (FBS), 2 ng/mL granulocyte-macrophage colony-stimulating factor, 1× non-essential amino acids (NEAA), and 1 mM sodium pyruvate. The day before the assay, the cultures were transferred to Opti-MEM™, 1×NEAA, 1 mM sodium pyruvate, and 0.5% charcoal-stripped FBS (starve medium). Inhibitor stock solutions (5 mM in DMSO) were serially diluted 1:2 in DMSO to generate a 10-point concentration titration (at 500× test concentration), which was further diluted by a 50-fold dilution in Assay Medium (RPMI containing 1×NEAA and 1 mM sodium pyruvate) to generate a 10× concentration titration (in 2% DMSO). The cells (300,000 cells/well in 35 μL of Assay Medium) were seeded in 384-well Greiner plates. Diluted inhibitor at 10× concentration (5 μL) was added to the cells and the plates were incubated for 30 minutes at 37° C. in a humidified incubator. Cells were stimulated with the human recombinant cytokine at the respective EC90 concentrations, as previously determined for each individual lot. For the phosphorylated signal transducer and activator of transcription 6 (P-STAT6) TF-1+Interleukin-13 (IL-13) assay, 10 μL of 250 ng/mL IL-13 (R&D Systems; Minneapolis, MN) was added to the cells, which were then incubated for 10 minutes at 37° C. For the P-STAT5 TF-1+Erythropoietin (EPO) assay, 10 μL of 110 IU/mL EPO (Gibco Life Technologies, Catalog No. PHC2054) was added to the cells, which were then incubated for […] at 37° C. For both assays, the incubation was followed by addition to the cells of 5 μL of ice-cold 10× cell lysis buffer (Cell Signaling Technologies; Danvers, MA; Catalog No. 9803S) containing 1 mM phenylmethylsulfonyl fluoride (PMSF). Assay plates were frozen at −80° C. for a minimum of 1 hour. In the IL-13 assay, P-STAT6 was measured by coating goat anti-rabbit (GAR) plates (Meso Scale Discovery [MSD]; Rockville, MD; Catalog No. MSD L21RA-1) with rabbit anti-human total STAT6 antibody (Cell Signaling Technologies; Catalog No. 9362S), incubating the cell lysates in the coated plates overnight at 4° C., and then detecting with mouse anti-P-STAT6 (Tyr641) Clone 16E12 antibody (MilliporeSigma; Burlington, MA; Catalog No. 05-590, custom labeled by MSD with SULFO-tag) using standard MSD plate processing, washing, and detection protocols. In the EPO assay, P-STAT5 was detected using the phospho-STAT5a,b Whole Cell Lysate Kit (MSD; Catalog No. K150IGD-1). The electrochemiluminescence (ECL) signal of wells was read on the MESO SECTOR 5600 (MSD) reader.
(§2) Data analysis was performed by subtracting the negative control (cytokine stimulated and 20 μM control inhibitor-treated cells) mean ECL value from the ECL value of all wells, determining percent of control for test compound well ECL values relative to the positive control (cytokine stimulated and DMSO-treated cells) mean ECL value, and determining the IC50 for test compounds with a four-parameter logistic fit model as shown in Equation 4.

Assay [4] addresses Recombinant human JAK2 kinase domain protein (Residues 812-1132) (Homo sapiens, UniProt O60674). The experiment in a line: JAK2 biochemical assay (LabChip mobility shift, Ki). The settings on record: Biochem JAK2 Ki.
For assay [5], the system named is IL-13-stimulated P-STAT6 in TF-1 human erythroleukemia cells. The experiment in a line: P-STAT6 TF-1 + IL-13 assay (JAK1 pathway). In kind it is cell-based. The settings on record: IL13 stimulation, read-out: Cellular JAK1 PSTAT6 TF-1 + IL13. How it is done: as §1, §2

T1 sequence (P23458 854-1154): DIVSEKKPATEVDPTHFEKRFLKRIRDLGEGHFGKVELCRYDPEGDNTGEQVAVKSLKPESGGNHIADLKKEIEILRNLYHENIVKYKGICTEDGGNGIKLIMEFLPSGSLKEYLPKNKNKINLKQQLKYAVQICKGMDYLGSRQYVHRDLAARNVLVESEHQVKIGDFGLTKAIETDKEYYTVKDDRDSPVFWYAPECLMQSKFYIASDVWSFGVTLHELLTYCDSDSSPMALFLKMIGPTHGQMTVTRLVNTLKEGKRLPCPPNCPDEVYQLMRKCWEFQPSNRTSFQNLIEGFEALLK
Recombinant human JAK2 kinase domain protein (Residues 812-1132), sequence (O60674 812-1132): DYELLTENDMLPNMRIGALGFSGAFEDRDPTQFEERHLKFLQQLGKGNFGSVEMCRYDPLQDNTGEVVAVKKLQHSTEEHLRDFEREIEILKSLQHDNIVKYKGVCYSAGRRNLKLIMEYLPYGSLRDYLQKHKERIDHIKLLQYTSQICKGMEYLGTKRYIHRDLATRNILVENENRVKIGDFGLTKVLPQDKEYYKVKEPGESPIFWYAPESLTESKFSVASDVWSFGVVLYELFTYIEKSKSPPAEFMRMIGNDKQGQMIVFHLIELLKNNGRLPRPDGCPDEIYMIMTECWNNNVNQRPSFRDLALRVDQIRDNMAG

By Ki is commonly meant a dissociation constant, usually derived from enzyme kinetics or from competition with a known ligand. As for `Cn1cc(NC(=O)c2cnn3cccnc23)c(-c2cc(Oc3cnn(C(F)F)c3)ccc2OC(F)F)n1` [Example 132, N-[3-[2-(difluoromethoxy)-5-[1-(difluoromethyl)pyrazol-4-yl]oxy-phenyl]-1-methyl-pyrazol-4-yl]pyrazolo[1,5-a]pyrimidine-3-carboxamide], the inhibition constant Ki in assay [1] was found to be 0.4 nM; in assay [4] it was 0.24 nM. Further, the IC50 was determined as 14 nM in assay [2] (Homo sapiens, BEAS-2B); 7.6 nM in assay [3] (Homo sapiens, TF-1, TF-1 cells); 4.6 nM in assay [5] (Homo sapiens, TF-1, TF-1 cells).

Regarding `CN(C)Cc1cncc(Oc2ccc(OC(F)F)c(-c3nn(C)cc3NC(=O)c3cnn4cccnc34)c2)c1` [Example 133, N-[3-[2-(difluoromethoxy)-5-[[5-[(dimethylamino)methyl]-3-pyridyl]oxy]phenyl]-1-methyl-pyrazol-4-yl]pyrazolo[1,5-a]pyrimidine-3-carboxamide], the values for the Ki in assay [1] and in assay [4] were 1.1 nM and 1.2 nM, respectively. The IC50 in assay [2] (Homo sapiens, BEAS-2B) came out at 62 nM; in assay [3] (Homo sapiens, TF-1, TF-1 cells), 24 nM; in assay [5] (Homo sapiens, TF-1, TF-1 cells) it was 13 nM.

For `Cn1ccc(Oc2ccc(OC(F)F)c(-c3nn(C)cc3NC(=O)c3cnn4cccnc34)c2)n1` [Example 143, N-[3-[2-(difluoromethoxy)-5-(1-methylpyrazol-3-yl)oxy-phenyl]-1-methyl-pyrazol-4-yl]pyrazolo[1,5-a]pyrimidine-3-carboxamide], the Ki in assay [1] stood at 0.69 nM; in assay [4], 0.36 nM. The IC50 in assay [2] (Homo sapiens, BEAS-2B) is 26 nM; in assay [3] (Homo sapiens, TF-1, TF-1 cells) it was 23 nM; in assay [5] (Homo sapiens, TF-1, TF-1 cells), 3 nM.

Take `Cn1cc(NC(=O)c2cnn3cccnc23)c(-c2cc(Oc3cn[nH]c3)ccc2OC(F)F)n1` [Example 160, N-[3-[2-(difluoromethoxy)-5-(1H-pyrazol-4-yloxy)phenyl]-1-methyl-pyrazol-4-yl]pyrazolo[1,5-a]pyrimidine-3-carboxamide]: the Ki in assay [1] stood at 0.1 nM; in assay [4] it was 0.07 nM. Moreover, the IC50 amounted to 8.3 nM in assay [2] (Homo sapiens, BEAS-2B); 3.6 nM in assay [3] (Homo sapiens, TF-1, TF-1 cells); 2.1 nM in assay [5] (Homo sapiens, TF-1, TF-1 cells).

For `O=C(Nc1c[nH]nc1-c1cc(Oc2cn[nH]c2)ccc1OC(F)F)c1cnn2cccnc12` [Example 173, N-[3-[2-(difluoromethoxy)-5-(1H-pyrazol-4-yloxy)phenyl]-1H-pyrazol-4-yl]pyrazolo[1,5-a]pyrimidine-3-carboxamide], the Ki was 0.13 nM in assay [1] and 0.076 nM in assay [4]. The IC50 in assay [2] (Homo sapiens, BEAS-2B) turned out to be 82 nM; in assay [3] (Homo sapiens, TF-1, TF-1 cells), 68 nM; in assay [5] (Homo sapiens, TF-1, TF-1 cells), 24 nM.

In the case of `CN1CC(O)C(n2cc(Oc3ccc(OC(F)F)c(-c4nn(C)cc4NC(=O)c4cnn5cccnc45)c3)cn2)C1` (stereo not drawn) [Example 178, N-[3-[2-(difluoromethoxy)-5-[1-(4-hydroxy-l-methyl-pyrrolidin-3-yl)pyrazol-4-yl]oxy-phenyl]-1-methyl-pyrazol-4-yl]pyrazolo[1,5-a]pyrimidine-3-carboxamide], the figures for the Ki in assay [1] and in assay [4] were 0.29 nM and 0.21 nM, respectively. For the same compound, the IC50 came to 32 nM in assay [2] (Homo sapiens, BEAS-2B); 49 nM in assay [3] (Homo sapiens, TF-1, TF-1 cells); 26 nM in assay [5] (TF-1 cells).

Turning to `CN1CC(O)C(n2cc(Oc3ccc(OC(F)F)c(-c4nn(C)cc4NC(=O)c4cnn5cccnc45)c3)cn2)C1` (stereo not drawn) [Example 179, N-[3-[2-(difluoromethoxy)-5-[1-(4-hydroxy-l-methyl-pyrrolidin-3-yl)pyrazol-4-yl]oxy-phenyl]-1-methyl-pyrazol-4-yl]pyrazolo[1,5-a]pyrimidine-3-carboxamide], the Ki in assay [1] was found to be 0.82 nM; in assay [4], 0.4 nM. Also, the IC50 in assay [2] came to 50 nM; in assay [3] (TF-1 cells), 72 nM; in assay [5] (TF-1 cells), 92 nM.

As for `CN1CCC(n2cc(Oc3ccc(OC(F)F)c(-c4nn(C)cc4NC(=O)c4cnn5cccnc45)c3)cn2)C(O)C1` (stereo not drawn) [Example 186, N-[3-[2-(difluoromethoxy)-5-[1-(3-hydroxy-1-methyl-4-piperidyl)pyrazol-4-yl]oxy-phenyl]-1-methyl-pyrazol-4-yl]pyrazolo[1,5-a]pyrimidine-3-carboxamide], the Ki was determined as 0.76 nM in assay [1] and 0.39 nM in assay [4]. In addition, the IC50 in assay [2] (Homo sapiens, BEAS-2B) amounted to 48 nM; in assay [3] (Homo sapiens, TF-1, TF-1 cells) it was 58 nM; in assay [5] (Homo sapiens, TF-1, TF-1 cells), 22 nM.

Regarding `CN1CCC(n2cc(Oc3ccc(OC(F)F)c(-c4nn(C)cc4NC(=O)c4cnn5cccnc45)c3)cn2)C(O)C1` (stereo not drawn) [Example 187, N-[3-[2-(difluoromethoxy)-5-[1-(3-hydroxy-1-methyl-4-piperidyl)pyrazol-4-yl]oxy-phenyl]-1-methyl-pyrazol-4-yl]pyrazolo[1,5-a]pyrimidine-3-carboxamide], the Ki in assay [1] turned out to be 0.35 nM; in assay [4], 0.24 nM. The IC50 in assay [2] is 44 nM; in assay [3] (TF-1 cells), 38 nM; in assay [5] (TF-1 cells), 34 nM.

In the case of `CN1CC(O)(c2cccc(Oc3ccc(OC(F)F)c(-c4nn(C)cc4NC(=O)c4cnn5cccnc45)c3)n2)C1` [Example 190, N-[3-[2-(difluoromethoxy)-5-[[6-(3-hydroxy-l-methyl-azetidin-3-yl)-2-pyridyl]oxy]phenyl]-1-methyl-pyrazol-4-yl]pyrazolo[1,5-a]pyrimidine-3-carboxamide], the inhibition constant Ki in assay [1] came to 1.4 nM; in assay [4], 1 nM. Moreover, the IC50 in assay [2] (Homo sapiens, BEAS-2B) stood at 38 nM; in assay [3] (Homo sapiens, TF-1, TF-1 cells), 130 nM; in assay [5] (Homo sapiens, TF-1, TF-1 cells), 180 nM.

As for `CC(=O)n1cc(Oc2ccc(OC(F)F)c(-c3nn(C)cc3NC(=O)c3cnn4cccnc34)c2)cn1` [Example 192, N-[3-[5-(1-acetylpyrazol-4-yl)oxy-2-(difluoromethoxy)phenyl]-1-methyl-pyrazol-4-yl]pyrazolo[1,5-a]pyrimidine-3-carboxamide], the Ki in assay [1] turned out to be 0.28 nM; in assay [4] it was 0.2 nM. In addition, the IC50 in assay [2] (Homo sapiens, BEAS-2B) is 9.3 nM; in assay [3] (Homo sapiens, TF-1, TF-1 cells) it was 2.1 nM; in assay [5] (Homo sapiens, TF-1, TF-1 cells), 3.3 nM.

For the compound `Cn1cc(NC(=O)c2cnn3cccnc23)c(-c2cc(Oc3cnn(S(C)(=O)=O)c3)ccc2OC(F)F)n1` [Example 195, N-[3-[2-(difluoromethoxy)-5-(1-methylsulfonylpyrazol-4-yl)oxy-phenyl]-1-methyl-pyrazol-4-yl]pyrazolo[1,5-a]pyrimidine-3-carboxamide], the Ki in assay [1] is 0.38 nM; in assay [4], 0.26 nM. Moreover, the IC50 in assay [2] (Homo sapiens, BEAS-2B) was 13 nM; in assay [3] (Homo sapiens, TF-1, TF-1 cells), 9.7 nM; in assay [5] (Homo sapiens, TF-1, TF-1 cells), 4.1 nM.
